{"source": "patent US8563503B2", "about": "“Antibiotic, its nucleotide sequence, methods of construction and uses thereof” (Protein Design Lab. Ltd., priority 2011, dated 2013)", "molecules": {"B1": {"name": "PMC-SA4: Staphylococcus aureus pheromone AgrD IV linked to C-terminus of allosteric colicin Ia′; SEQ ID NO. 19; plasmid pBHC-SA4 (protein)", "chain": "SDPVRITNPAAESLGYDSDGREIMGVDIYLNPPRVDVFKGTPPAWSSFGNKTIWGGNEWVDDSPTRSDIEKRDKEITAYKNTLSAQQKENENKRTEAGKRLSAAIAAREKDENTLKTLRAGNADAADITRQEFRLLQAELREYGFRTEIAGYDALRLHTESRMLFADADSLRISPREARSLIEQAEKRQKDAQNADKKAADMLAEYERRKGILDTRLSELEKNGGAALAVLDAQQARLLGQQTRNDRAISEARNKLSSVTESLNTARNALTRAEQQLTQQKNTPDGKTIVSPEKFPGRSSTNHSIVVSGDPRFAGTIKITTSAVIDNRANLNYLLSHSGLDYKRNILNDRNPVVTEDVEGDKKIYNAEVAEWDKLRQRLLDARNKITSAESAVNSARNNLSARTNEQKHANDALNALLKEKENIRNQLSGINQKIAEEKRKQDELKATKDAINFTTEFLKSVSEKYGAKAEQLAREMAGQAKGKKIRNVEEALKTYEKYRADINKKINAKDRAAIAAALESVKLSDISSNLNRFSRGLGYAGKFTSLADWITEFGKAVRTENWRPLFVKTETIIAGNAATALVALVFSILTGSALGIIGYGLLMAVTGALIDESLVEKANKFWGIYSTCYFIM", "modifications": "The peptide of PMC-SA4", "notes": "Staphylococcus aureus pheromone AgrD IV linked to C-terminus of allosteric colicin Ia′; 19; plasmid pBHC-SA4"}, "B2": {"name": "PMC-SA3: Staphylococcus aureus pheromone AgrD III linked to C-terminus of allosteric colicin Ia′; SEQ ID NO. 17; plasmid pBHC-SA3 (protein)", "chain": "B1 chain with S627I, T628N, Y630D, I632L, M633L", "modifications": "The peptide of PMC-SA3", "notes": "Staphylococcus aureus pheromone AgrD III linked to C-terminus of allosteric colicin Ia′; 17; plasmid pBHC-SA3"}, "B3": {"name": "PMC-SA2: Staphylococcus aureus pheromone AgrD II linked to C-terminus of allosteric colicin Ia′; SEQ ID NO. 15; plasmid pBHC-SA2 (protein)", "chain": "SDPVRITNPAAESLGYDSDGREIMAVDIYLNPPRVDVFKGTPPAWSSFGNKTIWGGNEWVDDSPTRSDIEKRDKEITAYKNTLSAQQKENENKRTEAGKRLSAAIAAREKDENTLKTLRAGNADAADITRQEFRLLQAELREYGFRTEIAGYDALRLHTESRMLFADADSLRISPREARSLIEQAEKRQKDAQNADKKAADMLAEYERRKGILDTRLSELEKNGGAALAVLDAQQARLLGQQTRNDRAISEARNKLSSVTESLNTARNALTRAEQQLTQQKNTPDGKTIVSPEKFPGRSSTNHSIVVSGDPRFAGTIKITTSAVIDNRANLNYLLSHSGLDYKRNILNDRNPVVTEDVEGDKKIYNAEVAEWDKLRQRLLDARNKITSAESAVNSARNNLSARTNEQKHANDALNALLKEKENIRNQLSGINQKIAEEKRKQDELKATKDAINFTTEFLKSVSEKYGAKAEQLAREMAGQAKGKKIRNVEEALKTYEKYRADINKKINAKDRAAIAAALESVKLSDISSNLNRFSRGLGYAGKFTSLADWITEFGKAVRTENWRPLFVKTETIIAGNAATALVALVFSILTGSALGIIGYGLLMAVTGALIDESLVEKANKFWGIGVNACSSLF", "modifications": "The peptide of PMC-SA2", "notes": "Staphylococcus aureus pheromone AgrD II linked to C-terminus of allosteric colicin Ia′; 15; plasmid pBHC-SA2"}}, "key": {"[1]": {"test_system": "Staphylococcus aureus MRSA BAA-42", "assay": "Protection test in vivo (intravenous injection) of infected mice", "parameters": "species or system Kungming mice", "details": "mice, infected with 6.5 × 10^5 cfu/ml i.p., drug once intravenous", "experimental": "(§1) The drugs used in this embodiment were same with that used in embodiment 4.\n(§2) The above drugs were dissolved and diluted by sterilized water, and the injection concentrations of each drug were 10 mg/kg, 5 mg/kg and 2.5 mg/kg.\n(§3) After given intraperitoneal injection of fatal dose of above-mentioned bacteria, the mice of each drug experimental group respectively were given once intravenous injection of the drug by 10 mg, 5 mg, 2.5 mg/kg. The results were observed per 24 hours for 7-14 days. The positive result is mice's death."}, "[2]": {"test_system": "Staphylococcus aureus ATCC 29213", "assay": "Protection test in vivo (intravenous injection) of infected mice", "parameters": "species or system Kungming mice", "details": "mice, infected with 4.6 × 10^5 cfu/ml i.p., drug once intravenous", "experimental": "as §1, §2, §3"}, "E. coli 02-1-65": {"test_system": "E. coli 02-1-65", "assay": "Protection test in vivo (intravenous injection) of infected mice", "parameters": "species or system Kungming mice", "details": "mice, infected with 3.8 × 10^5 cfu/ml i.p., drug once intravenous", "experimental": "as §1, §2, §3"}, "Enterococcus ATCC 700802": {"test_system": "Enterococcus ATCC 700802", "assay": "Protection test in vivo (intravenous injection) of infected mice", "parameters": "species or system Kungming mice", "details": "mice, infected with 7.0 × 10^6 cfu/ml i.p., drug once intravenous", "experimental": "as §1, §2, §3"}, "[3]": {"test_system": "Staphylococcus aureus MRSA BAA-42", "assay": "MIC against the infecting strain (Table 2)", "assay_type": "cell-based", "details": "Staphylococcus aureus MRSA BAA-42", "experimental": "(§4) (3) Culture Solution • MH Broth Culture Solution: 25 g was added into […] distilled water, heat to dissolve, subpackaged, autoclaved at 116° C. for 20 minutes, and MH Solid Culture Medium, 36 g was added into 1000 ml distilled water, autoclaved at 116° C. for 20 minutes, used for drug sensitive test of Gram-positive and negative aerobic bacteria. • Blood culture solution for Enterococcus faecalis, which was prepared by adding defibration rabbit blood into the MH culture solution by 5-10% and cultured at 37° C. in 5% CO2 for 24 hours. 2. Experimental Methods (1) The Measurement of Minimum Inhibitory Concentration (MIC) • The Minimum Inhibitory Concentration (MIC) of PMC-SA1 was measured by Agar Doubling Dilution Method. The bacterium was inoculated on the surface of agar plate containing different concentration of drugs by multipoint inoculate instrument (Deneley A400). The bacterial content per point was 10^5 CFU/ml. After incubated at 37° C. for 18-24 hours, the result can be observed. The least concentration of drugs in plate culture solution without bacterium growing was Minimum Inhibitory Concentration (MIC) of the drug to the said bacteria. 3. Results"}, "[4]": {"test_system": "Staphylococcus aureus ATCC 29213", "assay": "MIC against the infecting strain (Table 2)", "assay_type": "cell-based", "details": "ATCC29213", "experimental": "as §4"}, "[5]": {"test_system": "Multiple-drug resistance Pseudomonas aeruginosa (clinical separated strain 13280)", "assay": "In vivo protection of mice infected by multiple-drug resistance Pseudomonas aeruginosa", "parameters": "species or system Kungming mice", "details": "fatal dose i.p.", "excerpt": "(1) Drugs • PMC-PA, piperacillin, amikacin, ceftazidime, levofloxacin.\nMultiple-drug resistance Pseudomonas aeruginosa (clinical separated strain 13280, isolated by laboratory bacteria room of West China Hospital)\nKungming mice (n=60), half male and half female, weighing 15-20 g were given intraperitoneal injection of multiple-drug resistance Pseudomonas aeruginosa, therein PMC-PA, piperacillin, amikacin, ceftazidime and levofloxacin experimental group were set respectively as 10 mice per group, while the control group was set as 10 mice per group. After given intraperitoneal injection of fatal dose of the bacterium, the mice in drug experimental groups respectively were given an intravenous injection of one kind of above drugs, the results were observed per 24 hours for continuous 10 days. The positive result was mouse's death."}, "[6]": {"test_system": "methicillin-resistant Staphylococcus aureus ATCC BAA-42", "assay": "Bacteria growth curve (A595 nm), comparison of the novel antibiotics", "assay_type": "cell-based", "details": "drug 5 μg/ml, 37° C., A595 nm per hour", "experimental": "The following experiment was set for comparing bacteriostasis effects of 6 kinds of the novel antibiotics. The experimental bacteriaum was United States Standard Strain methicillin-resistant Staphylococcus aureus ATCC BAA-42. 5 microliter of bacteria solution (10^6 CFU/ml level bacterium amount) was added into 10 ml culture solution containing 1% peptone, 1% NaCl, 0.5% yeast extract, 0.5% glucose and 0.1% K2HPO4, total of 8 groups were prepared. The first group as control was added 0.3 M NaCl+50 mM boric acid buffer fluid by the same volume as that of antibiosis polypeptide liquid added in any experimental groups, the second group was added penicillin G sodium by 5 μg/ml, PMC-SA1, PMC-SA2, PMC-SA3, PMC-SA4, PMC-SE and PMC-PA were added in the other experimental groups with preservative fluid being 0.3 M NaCl+50 mM boric acid buffer fluid by 5 ug/ml.\nThe solution of above groups was put into 100 ml conical flask, 200 rpm, grew at 37° C. 100 μl was sampled per hour, and added onto 96-pore ELISA plate and measured bacteria grown cloudiness by spectrophotometer (A595 nm) color comparison. The bacteria growth curve was drawn up to compare the bacteriostasis efficacy of antibiosis polypeptide."}}, "note": "Residue numbers refer to the chain shown, from its start."}
{"molecule": "Cc1nnc(SCC2=C(C(=O)[O-])N3C(=O)[C@@H](NC(=O)Cn4cnnn4)[C@H]3SC2)s1.[Na+]", "note": "[Cefazolin, Cefazolin Sodium]", "values": [{"measurement": "ED50", "setting": "[1]", "value": 9.04, "unit": "mg/kg"}, {"measurement": "ED50", "setting": "[2]", "value": 29.11, "unit": "mg/kg"}, {"measurement": "ED50", "setting": "E. coli 02-1-65", "value": ">30", "unit": "mg/kg"}, {"measurement": "ED50", "setting": "Enterococcus ATCC 700802", "value": ">10", "unit": "mg/kg"}, {"measurement": "MIC", "setting": "[3]", "value": 6, "unit": "µg/mL"}, {"measurement": "MIC", "setting": "[4]", "value": 7, "unit": "µg/mL"}]}
{"molecule": "NCC[C@H](O)C(=O)N[C@@H]1C[C@H](N)[C@@H](O[C@H]2O[C@H](CN)[C@@H](O)[C@H](O)[C@H]2O)[C@H](O)[C@H]1O[C@H]1O[C@H](CO)[C@@H](O)[C@H](N)[C@H]1O", "note": "[amikacin]", "values": [{"measurement": "time in which mice were all dead", "setting": "[5]; 5 mg/kg intravenous", "value": "≤ 4", "unit": "days"}]}
{"molecule": "CC(C)(O/N=C(\\C(=O)N[C@@H]1C(=O)N2C(C(=O)[O-])=C(C[n+]3ccccc3)CS[C@H]12)c1csc(N)n1)C(=O)O", "note": "[ceftazidime]", "values": [{"measurement": "survival rate of mice in 10 days", "setting": "[5]; 50 mg/kg intravenous", "value": 20, "unit": "%"}]}
{"molecule": "C[C@H]1COc2c(N3CCN(C)CC3)c(F)cc3c(=O)c(C(=O)O)cn1c23", "note": "[levofloxacin]", "values": [{"measurement": "survival rate of mice in 10 days", "setting": "[5]; 5 mg/kg intravenous", "value": 40, "unit": "%"}]}
{"molecule": "CCN1CCN(C(=O)N[C@@H](C(=O)N[C@@H]2C(=O)N3[C@@H]2SC(C)(C)[C@@H]3C(=O)O)c2ccccc2)C(=O)C1=O", "note": "[piperacillin]", "values": [{"measurement": "time in which mice were all dead", "setting": "[5]; 50 mg/kg intravenous", "value": "≤ 3", "unit": "days"}]}
{"molecule": "B1", "values": [{"measurement": "bacteriostasis effect on growth of methicillin-resistant Staphylococcus aureus (bacteria growth curve)", "setting": "[6]", "value": "less better"}]}
{"molecule": "B2", "values": [{"measurement": "bacteriostasis effect on growth of methicillin-resistant Staphylococcus aureus (bacteria growth curve)", "setting": "[6]", "value": "still less better"}]}
{"molecule": "B3", "values": [{"measurement": "bacteriostasis effect on growth of methicillin-resistant Staphylococcus aureus (bacteria growth curve)", "setting": "[6]", "value": "still less better"}]}
